US20200131249A1, “NOVEL PROTEINS AND USE THEREOF” (EVOLVERITAS KFT., priority 2017, published 2020)
pKi: −log10 of the molar value. Where no end group is shown, it is not given here.

Columns and labels:
human MASP-1 = target: T1, human MASP-1 (Homo sapiens, UniProt P48740); test: KI determination on human MASP-1 catalytic fragment; format: biochemical; set-up: key to KI on human MASP-1: N.E.: not effective; details: catalytic fragment; Z-L-Lys-SBzl
T1 construct: catalytic enzyme fragments containing the three C-terminal domains: CCP1-CCP2-SP
T1 sequence (P48740 449-699 limits assumed): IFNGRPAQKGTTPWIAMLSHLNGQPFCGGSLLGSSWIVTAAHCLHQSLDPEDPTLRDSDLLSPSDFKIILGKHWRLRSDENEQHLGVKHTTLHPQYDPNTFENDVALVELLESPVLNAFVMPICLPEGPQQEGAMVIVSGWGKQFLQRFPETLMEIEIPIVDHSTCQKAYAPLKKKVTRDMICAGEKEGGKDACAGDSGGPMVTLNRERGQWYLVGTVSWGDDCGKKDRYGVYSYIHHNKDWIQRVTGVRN
T1 sequence (P48740 298-448 partner limits assumed): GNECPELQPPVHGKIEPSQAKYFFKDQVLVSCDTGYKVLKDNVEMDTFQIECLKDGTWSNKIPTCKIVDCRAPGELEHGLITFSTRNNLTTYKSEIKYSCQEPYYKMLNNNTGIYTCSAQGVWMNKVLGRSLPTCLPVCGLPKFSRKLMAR
Description: The inhibition equilibrium constant (KI) of all four inhibitor variants produced was measured on human MASP-2 and rat MASP-2. Additionally, KI values were measured also on human MASP-1 and human MASP-3 to assess the specificity of the inhibitors amongst the MASP enzymes. KI values of the inhibitors on bovine trypsin, a pancreatic model enzyme was also measured.
For determining the KI of the inhibitors on MASP enzymes we used catalytic enzyme fragments containing the three C-terminal domains: CCP1-CCP2-SP. The synthetic substrate used in the measurements was Z-L-Lys-SBzl hydrochloride (Sigma, C3647), from which a 10 mM stock solution was prepared. The reactions were performed in a volume of 0.2 ml at room temperature in a buffer consisting of 20 mM HEPES; 145 mM NaCl; 5 mM CaCl2; 0.05% Triton-X100. The substrate cleaved by the enzyme entered into a reaction with the 5,5′-Dithiobis(2-nitrobenzoic acid) (DTNB, Ellman's reagent, Sigma—D8130) auxiliary substrate present in the solution in 2-fold excess to Z-L-Lys-SBzl. The release of the chromophore group created in this way was monitored via the change of absorbance at 410 nm using a BioTek Synergy H4 multimode microplate reader.
A dilution sequence was prepared from the individual inhibitors, the enzyme was added to it, and it was incubated for 2 hours at room temperature. The samples were transferred on a 96-well microtiter plate (Nunc 269620). The reactions were started by adding the mixture of the substrate and the auxiliary substrate to the samples. The concentration of the substrate and the length of the measuring period were chosen so that under the given conditions the enzyme should consume less than 10% of the substrate. In this case we used 250 μM Z-L-Lys-SBzl and 500 μM DTNB in the reactions. In the course of measuring, a method developed for the characterisation of tight-binding inhibitors was used (Empie, 1982). The concentration of the product was measured as a function of reaction time. The slope of the straight line determined for the initial phase of the reaction was normalised with the slope obtained for the uninhibited enzyme reaction, and this value was multiplied with the total enzyme concentration. As a result of this we obtained the free enzyme concentration, which was plotted as a function of the total inhibitor concentration and the Ki value was determined according to the following equation:
E=y=E0−(E0+x+Ki−(((E0+x+Ki)^2)−4*E0*x)^(½))/2,
where E is the free (uninhibited) enzyme concentration, and E0 is the total enzyme concentration. The stock concentration of the inhibitors was determined by titration with bovine trypsin of known concentration. The results were calculated as the average of parallel measurements.

MASP-2 = MASP-2 (Homo sapiens, UniProt O00187); set-up: catalytic enzyme fragments containing the three C-terminal domains: CCP1-CCP2-SP; made in house; inclusion bodies, renatured; details: Data from Héja et al. 2012b; cited from earlier work
MASP-2, sequence (O00187 445-686 limits assumed): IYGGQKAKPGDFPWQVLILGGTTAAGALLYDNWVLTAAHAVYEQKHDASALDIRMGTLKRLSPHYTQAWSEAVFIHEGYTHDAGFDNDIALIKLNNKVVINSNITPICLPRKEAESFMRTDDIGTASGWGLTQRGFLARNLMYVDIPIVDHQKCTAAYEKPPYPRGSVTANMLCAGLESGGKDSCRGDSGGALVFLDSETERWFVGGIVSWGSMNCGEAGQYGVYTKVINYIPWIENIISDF
MASP-2, sequence (O00187 287-444 partner limits assumed): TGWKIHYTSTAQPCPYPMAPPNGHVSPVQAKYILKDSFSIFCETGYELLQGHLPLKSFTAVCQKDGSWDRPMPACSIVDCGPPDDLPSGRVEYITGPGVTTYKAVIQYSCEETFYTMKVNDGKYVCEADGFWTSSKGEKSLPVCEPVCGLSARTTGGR

human MASP-3 = target: T2, human MASP-3 (Homo sapiens, UniProt P48740); details: Data from Héja et al. 2012a; cited from earlier work
T2 construct: catalytic enzyme fragments containing the three C-terminal domains: CCP1-CCP2-SP
T2 sequence (P48740 450-728 isoform P48740-2 limits assumed): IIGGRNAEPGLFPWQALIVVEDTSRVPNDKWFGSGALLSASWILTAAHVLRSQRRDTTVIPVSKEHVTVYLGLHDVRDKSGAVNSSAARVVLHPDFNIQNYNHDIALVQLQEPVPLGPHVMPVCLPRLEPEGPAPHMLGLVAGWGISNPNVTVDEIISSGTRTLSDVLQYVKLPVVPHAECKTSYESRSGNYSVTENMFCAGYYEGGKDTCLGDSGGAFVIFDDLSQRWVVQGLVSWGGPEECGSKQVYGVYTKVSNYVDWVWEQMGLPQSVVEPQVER

thrombin = test: Thrombin time (TT) in human plasma
Description: (§1) Blood coagulation measurements using blood plasma taken from healthy human individuals were also performed. From the blood obtained through venipuncture and treated with sodium citrate (3.8% wt/vol) the plasma was isolated by centrifugation (2,000 g, 15 minutes, Jouan CR412 centrifuge).
(§2) The effect of the protein variants of the present invention on the blood coagulation process was tested in three standard assays, the thrombin time, testing any direct effects on thrombin; prothrombin time, testing any effects on the extrinsic pathway; and the activated partial thromboplastin time, testing any effects on the intrinsic pathway. Blood was collected from a healthy individual by vein puncture after informed consent. The blood was treated with sodium-citrate (3.8% w/v) and centrifuged. All three assays were performed on the automated instrument Sysmex CA-1500 (Sysmex) with Innovin reagent (Dale Behring, Marburg, Germany).
(§3) The inhibitors were applied in a fivefold serial dilution with the highest final concentration being 36 μM. This value is 3-4 orders of magnitudes higher than the KI values of the three protein variants of the present invention on human MASP-2. Even at the highest concentration the protein variants of the present invention have only little effect in the APTT test and no effect in the PT and TT tests.

extrinsic pathway = test: Prothrombin time (PT) in human plasma
Description: as §1, §2, §3

intrinsic pathway = test: Activated partial thromboplastin time (APTT) in human plasma
Description: as §1, §2, §3

| Substance | KI on human MASP-1 (human MASP-1) | pKi (MASP-2) | pKi (human MASP-3) | TT (thrombin; inhibitor 0.1 μM) [s] | TT (thrombin; inhibitor 0.3 μM) [s] | TT (thrombin; inhibitor 1.4 μM) [s] | TT (thrombin; inhibitor 7.2 μM) [s] | TT (thrombin; inhibitor 36.0 μM) [s] | PT (extrinsic pathway; inhibitor 0.1 μM) [s] | PT (extrinsic pathway; inhibitor 0.3 μM) [s] | PT (extrinsic pathway; inhibitor 1.4 μM) [s] | PT (extrinsic pathway; inhibitor 7.2 μM) [s] | PT (extrinsic pathway; inhibitor 36.0 μM) [s] | APTT (intrinsic pathway; inhibitor 0.1 μM) [s] | APTT (intrinsic pathway; inhibitor 0.3 μM) [s] | APTT (intrinsic pathway; inhibitor 1.4 μM) [s] | APTT (intrinsic pathway; inhibitor 7.2 μM) [s] | APTT (intrinsic pathway; inhibitor 36.0 μM) [s] |
| --- | --- | --- | --- | --- | --- | --- | --- | --- | --- | --- | --- | --- | --- | --- | --- | --- | --- | --- |
| SGMI-2 (GSGEVTCEPGTTFKDKCNTCRCGSDGKSAVCTKLWCNQ; Synthetic protein of insect origin) [reference compound] | N.E. | 8.22 | ~5.30 |  |  |  |  |  |  |  |  |  |  |  |  |  |  |  |
| SEQ ID NO: 14: TFPI-D2 variant protein with inhibitor loop PCRAVKR (SEQ ID NO: 4) (KPDFCFLEEDPGPCRAVKRRYFYNNQTKQCERFKYGGCLGNMNNFETLEECKNICEDG; ends and bridges not checked; cysteine pairing not given here) | N.E. |  |  | 16.5 | 16.6 | 16.7 | 16.2 | 15.5 | 10.8 | 10.7 | 10.8 | 10.9 | 11.3 | 36.1 | 36.8 | 37.9 | 40.2 | 46.4 |
